The record followed here is patent publication US20060110803A1 (Crucell Holland B.V., priority 2003, published 2006).

The experiment relates to antibodies in sera of individuals which have been and/or are infected by SARS-CoV (SARS-green, SARS-yellow, 1a, 1b, 2, 6, 37, 62, London). It counts as binding, human.

Turning to GVYYPDEIFRSDTLY [SEQ ID NO:78], the “recognition by sera of SARS-CoV infected individuals, looped/cyclic form” value (from here on “recognition by sera … looped/cyclic form”) was “recognized in looped/cyclic form”.

On to HTSPDVDLGDISGIN [SEQ ID NO:1155], for which the “recognition by sera … looped/cyclic form” value is “recognized in looped/cyclic form”.

On to HTSSMRGVYYPDEIF [SEQ ID NO:72], for which the “recognition by sera … looped/cyclic form” value is recorded as “recognized in looped/cyclic form”.

In the case of ICGDSTECANLLLQY [SEQ ID NO:752], the “recognition by sera of SARS-CoV infected individuals, linear form” value (shortened to “recognition by sera … linear form”) is reported as “recognized in linear form”.

On to IFLLFLTLTSGSDLD [SEQ ID NO:42], for which the “recognition by sera … looped/cyclic form” value is “recognized in looped/cyclic form”.

Take IINNTVYDPLQPELD [SEQ ID NO:1130]: the “recognition by sera … looped/cyclic form” value is “recognized in looped/cyclic form”.

On to INNTVYDPLQPELDS [SEQ ID NO:1131], for which the “recognition by sera … looped/cyclic form” value is on record as “recognized in looped/cyclic form”.

As to IQESLTTTSTALGKL [SEQ ID NO:944], the “recognition by sera … looped/cyclic form” value is on record as “recognized in looped/cyclic form”.

Turning to ITTEVMPVSMAKTSV [SEQ ID NO:732], the “recognition by sera … looped/cyclic form” value is “recognized in looped/cyclic form”.

For the sequence KFNGLTVLPPLLTDD [SEQ ID NO:864], the “recognition by sera … looped/cyclic form” value is given as “recognized in looped/cyclic form”.

In the case of KNHTSPDVDLGDISG [SEQ ID NO:1153], the “recognition by sera … looped/cyclic form” value was “recognized in looped/cyclic form”.

Turning to KNLNESLIDLQELGK [SEQ ID NO:1187], the “recognition by sera … looped/cyclic form” value was “recognized in looped/cyclic form”.

For KTSVDCNMYICGDST [SEQ ID NO:743], the “recognition by sera … linear form” value is reported as “recognized in linear form”.

As for KYFKNHTSPDVDLGD [SEQ ID NO:1150], the “recognition by sera … looped/cyclic form” value is listed as “recognized in looped/cyclic form”.

For LDKVEAEVQIDRLIT [SEQ ID NO:994], the “recognition by sera … looped/cyclic form” value is “recognized in looped/cyclic form”.

For the sequence LDKYFKNHTSPDVDL [SEQ ID NO:1148], the “recognition by sera … looped/cyclic form” value was “recognized in looped/cyclic form”.

Consider LDSFKEELDKYFKNH [SEQ ID NO:1143], for which the “recognition by sera … looped/cyclic form” value is “recognized in looped/cyclic form”.

Consider LFLTLTSGSDLDRCT [SEQ ID NO:45], for which the “recognition by sera … looped/cyclic form” value is given as “recognized in looped/cyclic form”.

As to LGFIAGLIAIVMVTI [SEQ ID NO:1214], the “recognition by sera … looped/cyclic form” value is “recognized in looped/cyclic form”.

Take LLFLTLTSGSDLDRC [SEQ ID NO:44]: the “recognition by sera … looped/cyclic form” value was “recognized in looped/cyclic form”.

Regarding LNEVAKNLNESLIDL [SEQ ID NO:1182], the “recognition by sera … looped/cyclic form” value is “recognized in looped/cyclic form”.

Turning to LQDVVNQNAQALNTL [SEQ ID NO:958], the “recognition by sera … looped/cyclic form” value was “recognized in looped/cyclic form”.

In the case of LQPELDSFKEELDKY [SEQ ID NO:1139], the “recognition by sera … looped/cyclic form” value is “recognized in looped/cyclic form”.

As for LTLTSGSDLDRCTTF [SEQ ID NO:47], the “recognition by sera … looped/cyclic form” value is recorded as “recognized in looped/cyclic form”.

Consider LTSGSDLDRCTTFDD [SEQ ID NO:49], for which the “recognition by sera … looped/cyclic form” value is reported as “recognized in looped/cyclic form”.

For the sequence LTTTSTALGKLQDVV [SEQ ID NO:948], the “recognition by sera … looped/cyclic form” value was “recognized in looped/cyclic form”.

On to LVSGTATAGWTFGAG [SEQ ID NO:887], for which the “recognition by sera … linear form” value is on record as “recognized in linear form”.

MFIFLLFLTLTSGSD [SEQ ID NO:40]: the “recognition by sera … looped/cyclic form” value is on record as “recognized in looped/cyclic form”.

MRGVYYPDEIFRSDT [SEQ ID NO:76]: the “recognition by sera … looped/cyclic form” value is given as “recognized in looped/cyclic form”.

For the sequence MYICGDSTECANLLL [SEQ ID NO:750], the “recognition by sera … linear form” value was “recognized in linear form”.

On to NAQALNTLVKQLSSN [SEQ ID NO:965], for which the “recognition by sera … looped/cyclic form” value was “recognized in looped/cyclic form”.

Turning to NEVAKNLNESLIDLQ [SEQ ID NO:1183], the “recognition by sera … looped/cyclic form” value is “recognized in looped/cyclic form”.

For the sequence NGLTVLPPLLTDDMI [SEQ ID NO:866], the “recognition by sera … looped/cyclic form” value is given as “recognized in looped/cyclic form”.

For NHTSPDVDLGDISGI [SEQ ID NO:1154], the “recognition by sera … looped/cyclic form” value is “recognized in looped/cyclic form”.

Take NLNESLIDLQELGKY [SEQ ID NO:1188]: the “recognition by sera … looped/cyclic form” value is listed as “recognized in looped/cyclic form”.

In the case of NMYICGDSTECANLL [SEQ ID NO:749], the “recognition by sera … linear form” value was “recognized in linear form”.

As for NNTVYDPLQPELDSF [SEQ ID NO:1132], the “recognition by sera … looped/cyclic form” value was “recognized in looped/cyclic form”.

For NQNAQALNTLVKQLS [SEQ ID NO:963], the “recognition by sera … looped/cyclic form” value is “recognized in looped/cyclic form”.

NTVYDPLQPELDSFK [SEQ ID NO:1133]: the “recognition by sera … looped/cyclic form” value is recorded as “recognized in looped/cyclic form”.

Turning to NVPFSPDGKPCTPPA [SEQ ID NO:485], the “recognition by sera … linear form” value is recorded as “recognized in linear form”.

Consider PCTPPALNCYWPLND [SEQ ID NO:494], for which the “recognition by sera … looped/cyclic form” value is given as “recognized in looped/cyclic form”.

As for PELDSFKEELDKYFK [SEQ ID NO:1141], the “recognition by sera … looped/cyclic form” value is listed as “recognized in looped/cyclic form”.

Take PFSPDGKPCTPPALN [SEQ ID NO:487]: the “recognition by sera … linear form” value was “recognized in linear form”.

Consider PLQPELDSFKEELDK [SEQ ID NO:1138], for which the “recognition by sera … looped/cyclic form” value was “recognized in looped/cyclic form”.

Take PPALNCYWPLNDYGF [SEQ ID NO:497]: the “recognition by sera … looped/cyclic form” value is recorded as “recognized in looped/cyclic form”.

As to QALNTLVKQLSSNFG [SEQ ID NO:967], the “recognition by sera … looped/cyclic form” value is given as “recognized in looped/cyclic form”.

On to QDVVNQNAQALNTLV [SEQ ID NO:959], for which the “recognition by sera … looped/cyclic form” value was “recognized in looped/cyclic form”.

As for QESLTTTSTALGKLQ [SEQ ID NO:945], the “recognition by sera … looped/cyclic form” value is on record as “recognized in looped/cyclic form”.

For the sequence QHTSSMRGVYYPDEI [SEQ ID NO:71], the “recognition by sera … looped/cyclic form” value is on record as “recognized in looped/cyclic form”.

Take QIQESLTTTSTALGK [SEQ ID NO:943]: the “recognition by sera … looped/cyclic form” value is “recognized in looped/cyclic form”.

For the sequence QKFNGLTVLPPLLTD [SEQ ID NO:863], the “recognition by sera … looped/cyclic form” value was “recognized in looped/cyclic form”.

Consider QNAQALNTLVKQLSS [SEQ ID NO:964], for which the “recognition by sera … looped/cyclic form” value is recorded as “recognized in looped/cyclic form”.

With QPELDSFKEELDKYF [SEQ ID NO:1140], the “recognition by sera … looped/cyclic form” value is listed as “recognized in looped/cyclic form”.

RGVYYPDEIFRSDTL [SEQ ID NO:77]: the “recognition by sera … looped/cyclic form” value was “recognized in looped/cyclic form”.

In the case of RLDKVEAEVQIDRLI [SEQ ID NO:993], the “recognition by sera … looped/cyclic form” value is reported as “recognized in looped/cyclic form”.

For RLNEVAKNLNESLID [SEQ ID NO:1181], the “recognition by sera … looped/cyclic form” value is recorded as “recognized in looped/cyclic form”.

Turning to SGSDLDRCTTFDDVQ [SEQ ID NO:51], the “recognition by sera … looped/cyclic form” value is listed as “recognized in looped/cyclic form”.

Regarding SGTATAGWTFGAGAA [SEQ ID NO:889], the “recognition by sera … linear form” value is recorded as “recognized in linear form”.

Regarding SLTTTSTALGKLQDV [SEQ ID NO:947], the “recognition by sera … looped/cyclic form” value is reported as “recognized in looped/cyclic form”.

Turning to SMRGVYYPDEIFRSD [SEQ ID NO:75], the “recognition by sera … looped/cyclic form” value is “recognized in looped/cyclic form”.

As for SNVPFSPDGKPCTPP [SEQ ID NO:484], the “recognition by sera … linear form” value was “recognized in linear form”.

Consider SPDGKPCTPPALNCY [SEQ ID NO:489], for which the “recognition by sera … linear form” value is “recognized in linear form”.

As to SPDVDLGDISGINAS [SEQ ID NO:1157], the “recognition by sera … looped/cyclic form” value is listed as “recognized in looped/cyclic form”.

Regarding SRLDKVEAEVQIDRL [SEQ ID NO:992], the “recognition by sera … looped/cyclic form” value is “recognized in looped/cyclic form”.

For SSMRGVYYPDEIFRS [SEQ ID NO:74], the “recognition by sera … looped/cyclic form” value is on record as “recognized in looped/cyclic form”.

Turning to SVDCNMYICGDSTEC [SEQ ID NO:745], the “recognition by sera … linear form” value was “recognized in linear form”.

For the sequence TAGWTFGAGAALQIP [SEQ ID NO:893], the “recognition by sera … linear form” value is listed as “recognized in linear form”.

With TATAGWTFGAGAALQ [SEQ ID NO:891], the “recognition by sera … linear form” value is “recognized in linear form”.

For TEVMPVSMAKTSVDC [SEQ ID NO:734], the “recognition by sera … looped/cyclic form” value is “recognized in looped/cyclic form”.

In the case of TLTSGSDLDRCTTFD [SEQ ID NO:48], the “recognition by sera … looped/cyclic form” value is listed as “recognized in looped/cyclic form”.

For the sequence TPPALNCYWPLNDYG [SEQ ID NO:496], the “recognition by sera … looped/cyclic form” value was “recognized in looped/cyclic form”.

Consider TQHTSSMRGVYYPDE [SEQ ID NO:70], for which the “recognition by sera … looped/cyclic form” value is “recognized in looped/cyclic form”.

Take TSGSDLDRCTTFDDV [SEQ ID NO:50]: the “recognition by sera … looped/cyclic form” value is on record as “recognized in looped/cyclic form”.

Regarding TSPDVDLGDISGINA [SEQ ID NO:1156], the “recognition by sera … looped/cyclic form” value is “recognized in looped/cyclic form”.
